{
  "source": "patent US6599918B2",
  "about": "“Substituted (aminoiminomethyl or aminomethyl) dihydrobenzofurans and benzopyrans” (Aventis Pharmaceuticals Inc., priority 1999, dated 2003)",
  "key": {"[1]": {"system": "neointimal proliferation after vascular injury", "conditions": "rabbit carotid artery air-drying injury; cited from earlier work"}, "[2]": {"system": "rat cultured vascular smooth muscle cells", "conditions": "cited from earlier work"}, "[3]": {"system": "human cultured vascular smooth muscle cells", "conditions": "cited from earlier work"}},
  "note": "Where a name gives a salt, the structure may show the parent alone. Where no end group is shown, it is not given here.",
  "data": [
    {"molecule": "N=C(N)c1ccc2c(c1)C(CCNC(=O)c1ccc(-c3ccccn3)s1)CO2", "note": "(stereo not shown) [Example 1a, 5-(Pyridin-2-yl)-thiophene-2-carboxylic acid (2-[5-carbamimidoyl-2,3-dihydrobenzofuran-3-yl]ethyl)amide]", "values": [
      {"measurement": "melting point", "value": "54 to 56", "unit": "°C"}
    ]},
    {"molecule": "CC(C)(C)c1ccc(C(=O)NCCC2COc3ccc(C(=N)N)cc32)cc1", "note": "(stereo not shown) (as salt: salt) [Example 1b, 4-tert-Butyl-N-(2-[5-carbamimidoyl-2,3-dihydrobenzofuran-3-yl]ethyl)benzamide]", "values": [
      {"measurement": "melting point", "value": "167 to 169", "unit": "°C"}
    ]},
    {"molecule": "CC(=N)N1CC[C@H](Oc2ccc([C@H](Cc3ccc4ccc(C(=N)N)cc4c3)C(=O)O)cc2)C1", "note": "[DX-9065a]", "values": [
      {"measurement": "neointimal proliferation", "setting": "[1]", "value": "less neointimal proliferation"}
    ]},
    {"molecule": "TAP: TAP, cited as example that the mitogenic effect of Factor Xa depends on Factor Xa enzymatic activity (YNRLCIKPRDWIDECDSNEGGERAYFRNGKGGCDSFWICPEDHTGADYYSSYRDCFNACI; ends and bridges not checked; cysteine pairing not given here; UniProt P17726 1-60, looked up)", "values": [
      {"measurement": "mitogenesis of cultured vascular smooth muscle cells", "setting": "[2]", "value": "inhibited the mitogenesis"},
      {"measurement": "mitogenesis of cultured vascular smooth muscle cells", "setting": "[3]", "value": "inhibited the mitogenesis"}
    ]},
    {"molecule": "CC(C)(CN)c1ccc(C(=O)NCCC2COc3ccc(C(=N)N)cc32)cc1", "note": "(stereo not shown) (as salt: salt) [Example 1c, 4-(2-Amino-1,1-dimethylethyl)-N-(2-[5-carbamimidoyl-2,3-dihydrobenzofuran-3-yl]ethyl)benzamide]", "values": [
      {"measurement": "melting point", "value": "209 to 210", "unit": "°C"}
    ]},
    {"molecule": "CCC(C)(C)c1ccc(S(=O)(=O)NCCC2COc3ccc(C(=N)N)cc32)cc1", "note": "(stereo not shown) [Example 1aar, 3-{2-[4-(1,1-Dimethylpropyl)benzenesulfonylamino]ethyl}-5-carbamimidoyl-2,3-dihydrobenzofuran]", "values": [
      {"measurement": "melting point", "value": "52 to 56", "unit": "°C"}
    ]}
  ]
}
